These results are taken from patent US20230413860A1, “Abscisic Acid-Mixed Pig Feed” (Sumitomo Chemical Company, Limited, priority 2020, published 2023).

The structures appear in SMILES notation.

Common to all, as to type: in vivo, pig
Data set [1] can be described thus: Effect of abscisic acid on reducing productivity decrease due to cold stress in young pigs. To be noted: for Feed Conversion Rate (Feed Intake/Body Weight Gain, Average value) / Feed Intake (Average value) / Body Weight Gain (Average value): low temperature (20.4° C.), young pigs; for Body Weight Gain (Average value): age 35 to 70 days. On the procedure:
Eighty four (84) crossbred young pigs (LWD) at an age of 28 days were employed in this test. Body weight of the each young pigs was measured and seven animals were assigned to one section considering the average body weight across the sections was equal, and the three sections (replicates) were assigned to a total four test groups. The test period was from 28 to 70 day-old, and S-abscisic acid was (hereinafter, referred to as “S-ABA”) used as a test substance. The S-ABA was added to the feed at the concentrations shown in Table 1, and the feed containing S-ABA was fed daily to the pigs at the age of 28 to 70 days. The low temperature environment was carried out from the age of 36 to 70 days of the pigs.
The following four groups were set.
The pigs were raised at the optimal temperature from the age of 28 to 35 day-old. After the age of 36 days, the pigs of the Test group 1 were housed at an optimal temperature and the pigs of the Test groups 2 to 4 were exposed to a particular low temperature by air conditioner. The raising temperature were measured with a thermo-hygrometer or a data logger which was installed near the center of the raising room, and then recorded. The average room temperature of the optimal temperature group was 26.1° C., and the average room temperature of the low temperature group was 20.4° C.
As a feed, an early feed, middle feed or late feed of MAMACOLO which was manufactured by FEED ONE CO., LTD. (2-6, Higashifukasiba Kamisu-shi, Ibaraki) was given by ad libitum feeding. A drinking water was freely ingested by a waterer with a picker. The early feed was given until the age of 35 days of the pig, the middle feed was given at the age of from 36 days to 42 days, and the late feed was given at the age of post 43 days.
• (i) Clinical symptoms: observed daily. • (ii) Body weight: Body weight was measured for each individual at the age of 28, 35 and 70 days old, and the average weight gain per a section from the age of 35 to 70 days during the test period was calculated. • (iii) Feed intake: Feed intake was measured daily for each section, and feed intake for one animal per a week was calculated. Also, feed conversion rate (feed intake/body weight gain) was calculated from “Average feed intake” and “Average body weight gain per section” during the test period.

Data set [2] can be described thus: Effect of abscisic acid on reducing productivity decrease due to heat stress in young pigs. The conditions noted are these: for Feed Conversion Rate (Feed Intake/Body Weight Gain, Average value) / Feed Intake (Average value) / Body Weight Gain (Average value): high temperature (30.6° C.), young pigs; for Body Weight Gain (Average value): age 35 to 70 days. On the procedure: Eighty four (84) of crossbred young pigs (LWD) at an age of 28 days were employed in this test. Body weight of the each young pigs was measured and seven animals were assigned to one section considering the average body weight across the sections was equal, and the three sections (replicates) were assigned to a total four test groups. The test period was from 28 to 70 day-old, and S-abscisic acid was used as a test substance. The S-ABA was added to the feed at the concentrations shown in the Table 6, and the feed containing S-ABA was fed daily to the pigs at the age of 28 to 70 days. The high temperature environment was carried out from the age of 36 to 70 days of the pigs.
The following four groups were set. Three sections (repetitions) per one group was set, which were assigned to each test group as indicated in the below Table.
The pigs were raised at the optimal temperature from the age of 28 to 35 day-old. After the age of 36 days the pigs of the Test group 1 were housed at an optimal temperature and the pigs of the Test groups 2 to 4 were exposed to a particular high temperature by air conditioner. The raising temperature were measured with a thermo-hygrometer or a data logger which was installed near the center of the raising room, and then recorded. The average room temperature of the optimal temperature group was 26.1° C., and the average room temperature of the […] temperature group was 30.6° C.
As a feed, similarly to the test example 1, an early feed, middle feed or late feed of MAMACOLO which was manufactured by FEED ONE CO., LTD. (2-6, Higashifukasiba Kamisu-shi, Ibaraki) was given by ad libitum feeding. A drinking water was freely ingested by a waterer with a picker. The early feed was given until the age of 35 days of the pig, the middle feed was given at the age of from 36 days to 42 days, and the late feed was given at the age of post 43 days.
• (i) Clinical symptoms: observed daily. • (ii) Body weight: Body weight was measured for each individual at the age of 28, 35 and 70 days old, and the average weight gain per a section from the age of 35 to 70 days during the test period was calculated. • (iii) Feed intake: Feed intake was measured daily by each section, and feed intake for one animal per a week was calculated. Also, feed conversion rate (feed intake/body weight gain) was calculated from “Average feed intake” and “Average body weight gain per section” during the test period.

In data set [3] the test system is reduced glutathione. Description: Effect of abscisic acid on increasing production of reduced glutathione in small intestine of gilts. The text has this:
Twelve (12) of gilts at an age of 8 months were employed in this test. The S-ABA (particle size of 0.1 to 1 mm) in the amounts as shown in Table 11 was supplemented in the feed for about 40 days from the day of artificial insemination.
• (i) Clinical symptoms: observed daily. • (ii) Sampling of intestinal tracts: The pig was dissected on the 40th day of pregnancy, and the small intestine was sampled.
The measurement results of reduced glutathione in a small intestine after the administration for about 40 days are shown in Table 12. Using a commercially available glutathione measuring kit (manufactured by DOJINDO CHEMICALS Inc.; […]), the reduced glutathione contained in 1 g of small intestine tissue was determined quantitatively.

As to `CC1=CC(=O)CC(C)(C)[C@@]1(O)/C=C/C(C)=C\C(=O)O` [ABA, (S)-(+)-abscisic acid], the Clinical symptoms entry in data set [1] (0.1, 0.5 or 1 ppm in feed, age 28 to 70 days, observed daily, low temperature) is given as “No abnormality was seen”; in data set [2] (0.1, 0.5 or 1 ppm in feed, age 28 to 70 days, observed daily, high temperature), “No abnormality was seen”; in data set [3] (10 ppm S-ABA in feed for about 40 days, observed daily) it was “No abnormality was seen”. For the same compound, the “Feed Conversion Rate (Feed Intake/Body Weight Gain, Average value)” value in data set [1] (0.1 ppm ABA in feed) is listed as 4.40; in data set [1] (0.5 ppm ABA in feed) it was 4.29; in data set [1] (1.0 ppm ABA in feed), 4.41; in data set [2] (0.1 ppm ABA in feed), 4.54; in data set [2] (0.5 ppm ABA in feed), 4.25; in data set [2] (1.0 ppm ABA in feed), 3.91. Further, the “Feed Intake (Average value)” value is reported as 29.81 kg in data set [1] (0.1 ppm ABA in feed); 29.91 kg in data set [1] (0.5 ppm ABA in feed); 30.30 kg in data set [1] (1.0 ppm ABA in feed); 30.7 kg in data set [2] (0.1 ppm ABA in feed); 29.7 kg in data set [2] (0.5 ppm ABA in feed); 32.9 kg in data set [2] (1.0 ppm ABA in feed). Also, the “Body Weight Gain (Average value)” value in data set [1] (0.1 ppm ABA in feed) was determined as 16.99 kg; in data set [1] (0.5 ppm ABA in feed), 16.40 kg; in data set [1] (1.0 ppm ABA in feed), 17.00 kg; in data set [2] (0.1 ppm ABA in feed) it was 18.04 kg; in data set [2] (0.5 ppm ABA in feed), 18.25 kg; in data set [2] (1.0 ppm ABA in feed), 19.02 kg. For the same compound, the “Reduced glutathione in small intestine tissue compared to the no dosing S-ABA group” value in data set [3] (10 ppm S-ABA in feed for about 40 days) is on record as “increased amount of reduced glutathione in small intestine tissue significantly”. Besides, the “Reduced glutathione Amount” value in data set [3] (10 ppm S-ABA in feed for about 40 days from artificial insemination, small intestine tissue) is reported as 0.234 μmol/g wet tissue.
